Active and inactive are the calls of the source. The rule behind the calls is not given here.
How the values were obtained:
WI-38 [1] = test: Antiproliferative activity against human WI38 cells at 30 uM after 12 to 48 hrs by MTT assay; assay type: cell-based; conditions: wi-38, 30 µM
HUVEC [2] = test: Antimigratory activity in HUVEC assessed as reduction in wound-healing at 0.1 to 0.3 uM after 12 hrs by inverted phase contrast microscopy; assay type: functional, cell-based; conditions: Homo sapiens
Chorioallantoic membrane = test: Antiangiogenic activity in chicken fertilized egg chorioallantoic membrane assessed as reduction in branching of blood vessels after 48 hrs; assay type: functional, tissue-based; conditions: Gallus gallus
HUVEC [3] = test: Downregulation of MMP-9 expression in HUVEC at 0.2 to 0.5 uM after 24 hrs by Western blot analysis; assay type: functional, cell-based; conditions: Homo sapiens
HUVEC [4] = test: Vascular disrupting activity in HUVEC assessed as disruption of preformed tube like structure after 6 hrs by inverted phase contrast microscopy based matrigel assay; assay type: functional, cell-based; conditions: Homo sapiens
HUVEC [5] = test: Downregulation of MMP-2 expression in HUVEC at 0.2 to 0.5 uM after 24 hrs by Western blot analysis; assay type: functional, cell-based; conditions: Homo sapiens
Homo sapiens = species: Homo sapiens; test: Inhibition of Akt phosphorylation in HUVEC after 24 hrs by Western blot analysis
WI-38 [6] = test: Antiproliferative activity against human WI38 cells at 20 to 100 uM after 12 to 48 hrs by MTT assay; assay type: cell-based; conditions: wi-38, 100 µM
HUVEC [7] = test: Antiproliferative activity against HUVEC at 0.1 to 0.3 uM after 6 hrs by MTT assay; assay type: functional, cell-based; conditions: Homo sapiens
[8] = target: T1, Catenin beta-1 (Homo sapiens) (UniProt P35222); test: Inhibition of beta-catenin phosphorylation in HUVEC after 24 hrs by Western blot analysis
T1 sequence (whole entry): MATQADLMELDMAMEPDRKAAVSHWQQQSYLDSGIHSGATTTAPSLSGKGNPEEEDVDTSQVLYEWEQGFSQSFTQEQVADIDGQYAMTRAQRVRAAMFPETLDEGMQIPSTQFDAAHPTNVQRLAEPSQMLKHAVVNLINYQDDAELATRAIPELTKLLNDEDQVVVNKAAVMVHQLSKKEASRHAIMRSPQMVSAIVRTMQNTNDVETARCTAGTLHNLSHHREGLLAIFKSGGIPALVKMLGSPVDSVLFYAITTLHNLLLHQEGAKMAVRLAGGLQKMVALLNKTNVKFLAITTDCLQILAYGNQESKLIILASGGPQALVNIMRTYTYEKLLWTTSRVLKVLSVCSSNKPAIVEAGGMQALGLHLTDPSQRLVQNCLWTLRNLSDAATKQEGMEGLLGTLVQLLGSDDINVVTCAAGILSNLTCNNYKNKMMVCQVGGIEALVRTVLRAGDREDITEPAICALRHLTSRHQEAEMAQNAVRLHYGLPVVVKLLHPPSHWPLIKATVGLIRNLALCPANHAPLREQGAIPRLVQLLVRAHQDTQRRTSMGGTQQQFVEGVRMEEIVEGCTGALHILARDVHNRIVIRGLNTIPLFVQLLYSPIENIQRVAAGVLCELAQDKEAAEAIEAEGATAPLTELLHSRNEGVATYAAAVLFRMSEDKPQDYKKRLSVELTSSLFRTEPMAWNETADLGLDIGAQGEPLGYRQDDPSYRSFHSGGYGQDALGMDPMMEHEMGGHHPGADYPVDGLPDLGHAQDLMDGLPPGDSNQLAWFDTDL

HUVEC [9] = test: Antiangiogenic activity in HUVEC assessed as inhibition of formation of tubular structures after 6 hrs by inverted phase contrast microscopy based matrigel assay; assay type: functional, cell-based; conditions: Homo sapiens

Row | Structure (SMILES) | Activity (WI-38 [1]) | Activity (HUVEC [2]) | Activity (Chorioallantoic membrane) | Activity (HUVEC [3]) | Activity (HUVEC [4]) | Activity (HUVEC [5]) | inhibition (Homo sapiens) | Activity (WI-38 [6]) | Activity (HUVEC [7]) | inhibition [8] | Activity (HUVEC [9])
1 | COc1cc([C@@H]2c3cc4c(cc3[C@@H](O[C@@H]3O[C@@H]5CO[C@@H](C)O[C@H]5[C@H](O)[C@H]3O)[C@H]3COC(=O)[C@H]23)OCO4)cc(OC)c1O [ETOPOSIDE] | Non-Toxic |  |  |  |  |  |  |  |  |  | 
2 | COc1cc([C@@H]2c3cc4c(cc3C[C@H]3COC(=O)[C@@H]32)OCO4)cc(OC)c1OC(=O)CCC(=O)NCCCCCCNC(=O)Cn1cc(F)c(=O)[nH]c1=O |  | Active | Dose-dependent effect | Active | Dose-dependent effect | Active | Dose-dependent effect | Non-Toxic | Active | Dose-dependent effect | Dose-dependent effect
